The source of these data is publication PMC9783227, “New Derivatives of the Multi-Stage Active Malaria Box Compound MMV030666 and Their Antiplasmodial Potencies” (Pharmaceuticals, 2022).

SMILES strings stand for the structures. Where two headings read alike, the source gives them in different places.

The subject of data set [1] is P. falciparum NF54. Kind of data set: In vitro microplate assay against P. falciparum NF54 (3H-hypoxanthine incorporation). Type of data set: cell-based, Plasmodium falciparum. The following applies: for S.I. = IC50 (Cyt.)/IC50 (PfNF54): L-6 cells IC50 / PfNF54 IC50; for IC50: average of four determinations, read-out: PfNF54 IC50. The method, then:
(§1) All newly prepared compounds were tested for their in vitro activity against the chloroquine sensitive strain NF54 of P. falciparum. Cytotoxicity was determined using L-6 cells (rat skeletal myofibroblasts). Chloroquine and podophyllotoxin were used as standards.
The in vitro activity of compounds against erythrocytic stages of the drug sensitive NF54 strain of P. falciparum […] was determined using a ^3H-hypoxanthine incorporation assay. Compounds were dissolved in DMSO at 10 mg/mL and further diluted in medium before adding to parasite cultures that were incubated in RPMI 1640 medium without hypoxanthine, supplemented with HEPES (5.94 g/L), NaHCO3 (2.1 g/L), neomycin (100 U/mL), AlbumaxR (5 g/L) and washed human red blood cells A+ at 2.5% haematocrit (0.3% parasitaemia). Serial drug dilutions of eleven 3-fold dilutions steps covering a range from 100 to 0.002 µg/mL were prepared. The 96-well plates were incubated in a humidified atmosphere at 37 °C; 4% CO2, 3% O2, 93% N2. After 48 h of incubation time, 0.05 mL of ^3H-hypoxanthine (=0.5 µCi) was added to each well of the plate. The plates were incubated for further 24 h under the same conditions. Plates were then harvested using a Betaplate^TM cell harvester (Wallac, Zurich, Switzerland). Red blood cells were transferred onto a glass fiber filter and then washed with distilled water. The dried filters were inserted into a plastic foil with 10 mL of scintillation fluid and counted in a Betaplate^TM liquid scintillation counter (Wallac, Zurich, Switzerland). IC50 values were calculated from sigmoidal inhibition curves by linear regression using Microsoft Excel. Chloroquine (Sigma C6628) was used as control.

Data set [2] is described as follows: Parallel artificial membrane permeability assay (PAMPA). To be noted: for Papp at 5 h, 200 µM: pH 7.4, Pe. The method, then:
The parallel artificial membrane permeability assay (PAMPA) is a fast and easy high-throughput assay to determine passive permeability of compounds through semi-permeable membranes (for example the blood-brain-barrier) without the influence of efflux pumps or transporter molecules.
With the high-throughput PAMPA the newly synthesized compounds were tested for their passive permeability through cell membranes without the influence of efflux pumps or transporter proteins. The assay was performed using a Corning® Gentest^TM Pre-coated PAMPA Plate System with 96-well polystyrene plates. The bottom of the acceptor plate consists of a porous membrane, whereby the pores are lined with a lipid-oil-lipid triple layer. Stock solutions of each test compound at 10 mM were prepared in DMSO or methanol and diluted with phosphate-buffered saline (PBS at a pH of 7.4) to a final concentration of 200 µM. […] The donor plate (bottom plate) was filled with the compound solutions, whereby all compounds were tested in quadruplicates. Each well of the acceptor plate (top plate) was filled with PBS buffer. Donor and acceptor plates were combined and incubated at room temperature for 5 h. After that, the plates were separated and 150 µL of each well of both plates were transferred to 96-well UV plates (Greiner Bio-One). Absorption at different wavelengths covering a range from 200 to 300 nm was measured using a SpectraMax M3 UV plate reader. […] The plates were analyzed at the wavelength where the R^2 value of the calibration curve was higher than 0.99 [41]. […] (2) cequ=[cD(t)∗VD+cA(t)∗VA]/(VD+VA) where: • VD—donor well volume (0.3 mL); • VA—acceptor well volume (0.2 mL); • cA(t)—acceptor well compound concentration at time t; • cD(t)—donor well compound concentration at time t.
Recovery of compounds from donor and acceptor wells (mass retention) was calculated as shown in the equation below. Data were only accepted when recovery exceeded 70%. (3) R=1−[cD(t)∗VD+cA(t)∗VA]/(c0∗VD) where: • R—mass retention (%); • VD—donor well volume (0.3 mL); • VA—acceptor well volume (0.2 mL); • cA(t)—acceptor well compound concentration at time t; • cD(t)—donor well compound concentration at time t; • c0—initial donor well compound concentration (200 µM).
(In general: The PAMPA barrier holds no transporters, so it reflects passive diffusion.)

Data set [3] can be described thus: in vitro. To be noted: rat. The method, then:
as §1
The cytotoxicity assays were performed using 96-well microtiter plates, each well containing 4000 L-6 cells (a primary cell line derived from rat skeletal myofibroblasts, ATCC CRL-1458^TM) in 0.1 mL of RPMI 1640 medium supplemented with 1% glutamine (200 mM) and 10% fetal bovine serum. Serial drug dilutions of eleven 3-fold dilution steps covering a range from 100 to 0.002 µg/mL were prepared. After 70 h of incubation, the plates were inspected under an inverted microscope to assure growth of the controls and sterile conditions. Then, 0.01 mL resazurin solution (resazurin, 12.5 mg in 100 mL double-distilled water) was added to each well and the plates were incubated for another 2 h. The plates were read with a Spectramax Gemini XS microplate fluorometer (Molecular Devices Cooperation, Sunnyvale, CA, USA) using an excitation wavelength of 536 nm and an emission wavelength of 588 nm. IC50 values were calculated by linear regression from the sigmoidal dose inhibition curves using SoftmaxPro software (Molecular Devices Cooperation, Sunnyvale, CA, USA). Podophyllotoxin (Sigma P4405) was used as control.

Setting [4] is: PAMPA, PBS pH 7.4, 200 µM, 5 h, room temperature.
Where [5] appears, read: Plasmodium falciparum, NF54, chloroquine sensitive strain NF54, erythrocytic stages.
Setting [6] is: chloroquine sensitive strain NF54, erythrocytic stages.

Consider `CCN(CC)CCCC(C)Nc1ccnc2cc(Cl)ccc12` (centres unmarked) [CQ, chloroquine, reference compound], for which, in data set [1], the “S.I. = IC50 (Cyt.)/IC50 (PfNF54)” value turned out to be 9672.
As for `Cn1c(=O)c2c(ncn2C)n(C)c1=O` [Caffeine, reference compound], the Pe in data set [2] (PAMPA standards) is reported as 80 nm/s; in data set [2] (setting [4]), 8.00 10^−6 cm/s.
Take `CC(C)(C)OC(=O)N1CCN(c2ccccc2NC(=O)c2cccc([N+](=O)[O-])c2Oc2ccc(F)cc2)CC1` [Compound 28, tert-Butyl 4-{2-[2-(4-fluorophenoxy)-3-nitrobenzamido]phenyl}piperazine-1-carboxylate]: in data set [2] (setting [4]), the Papp (usually a coefficient for how fast a substance crosses the barrier) at 5 h, 200 µM was 1.68 ×10⁻⁶ cm/s. In addition, in data set [1] (setting [5]), the IC50 – broadly, the concentration at which inhibition is half-maximal – was determined as 0.591 µM. Moreover, half-maximal inhibition in data set [3] (IC50 at 72 h) required 90.4 µM.
Take `CC(C)(C)OC(=O)N1CCN(c2ccccc2NC(=O)c2cccc(C(F)(F)F)c2Sc2ccc(F)cc2)CC1` [Compound 29, tert-Butyl 4-(2-{2-[(4-fluorophenyl)sulfanyl]-3-(trifluoromethyl)benz-amido}phenyl) piperazine-1-carboxylate]: in data set [2] (setting [4]), the Pe is listed as 3.77 10^−6 cm/s and the Papp at 5 h, 200 µM came out at 4.31 ×10⁻⁶ cm/s. For the same molecule, in data set [1], the “S.I. = IC50 (Cyt.)/IC50 (PfNF54)” value was 850.5. Besides, in data set [1] (setting [5]), the IC50 is 0.195 µM. Besides, in data set [3], the IC50 at 72 h amounted to 166 µM.
`CC(C)(C)OC(=O)N1CCN(c2ccccc2NC(=O)c2ccccc2Oc2ccccc2)CC1` [Compound 30, tert-Butyl 4-[2-(2-phenoxybenzamido)phenyl]piperazin-1-carboxylate]: the Papp at 5 h, 200 µM in data set [2] (setting [4]) amounted to 8.52 ×10⁻⁶ cm/s. Moreover, the “S.I. = IC50 (Cyt.)/IC50 (PfNF54)” value in data set [1] came to 19.87. In addition, the IC50 in data set [1] (setting [5]) was found to be 1.13 µM. Moreover, 22.5 µM corresponded to half-maximal inhibition in data set [3] (IC50 at 72 h).
`CC(C)(C)OC(=O)N1CCN(c2ccccc2NC(=O)c2cccc(C(F)(F)F)c2Nc2ccccc2)CC1` [Compound 31, tert-Butyl 4-{2-[2-anilino-3-(trifluoromethyl)benzamido]phenyl}piperazin-1-carboxylate] gave a Papp at 5 h, 200 µM in data set [2] (setting [4]) of 0.65 ×10⁻⁶ cm/s. Also, the IC50 is 0.614 to 0.636 µM in data set [1] (setting [5]) and 0.614 µM in data set [1] (setting [6]). For the same molecule, the midpoint of inhibition in data set [3], the IC50 at 72 h, lay at 129 µM.
The like results for `CC(C)(C)OC(=O)N1CCN(c2ccccc2NC(=O)c2cccc(C(F)(F)F)c2Nc2ccc(F)cc2)CC1` [Compound 32, tert-Butyl 4-{2-[2-(4-fluoroanilino)-3-(trifluoromethyl)benzamido]phenyl}piperazin-1-carboxylate] were, in that order, 0.57 ×10⁻⁶ cm/s, 0.614 to 0.636 µM, 0.636 µM and 123 µM.
In turn, `CC(C)(C)C(=O)N1CCN(c2ccccc2NC(=O)c2cccc([N+](=O)[O-])c2Oc2ccc(F)cc2)CC1` [Compound 34, N-{2-[4-(2,2-Dimethylpropanoyl)piperazin-1-yl]phenyl}-2-(4-fluorophenoxy)-3-nitrobenzamid] showed a Papp at 5 h, 200 µM in data set [2] (setting [4]) of 6.92 ×10⁻⁶ cm/s. For the same molecule, in data set [1] (setting [5]), the IC50 was 2.61 µM. In data set [3], the IC50 at 72 h came out at 114 µM.
Turning to `CC(C)(C)C(=O)N1CCN(c2ccccc2NC(=O)c2cccc(F)c2Oc2ccc(F)cc2)CC1` [Compound 35, N-{2-[4-(2,2-Dimethylpropanoyl)piperazin-1-yl]phenyl}-3-fluoro-2-(4-fluorophenoxy)benzamid], the Pe in data set [2] (setting [4]) was 0.00 10^−6 cm/s. For the same molecule, in data set [1] (setting [5]), the IC50 worked out at 2.14 µM. In data set [3], this molecule displayed an IC50 at 72 h of 15.6 µM.
On to `CC(C)(C)OC(=O)N1CCN(c2ccc(NC(=O)c3ccccc3Oc3ccc(F)cc3)cc2)CC1` [Compound 36, tert-Butyl 4-{4-[2-(4-fluorophenoxy)benzamido]phenyl}piperazine-1-carboxylate], for which, in data set [2] (setting [4]), the Papp at 5 h, 200 µM came to 2.84 ×10⁻⁶ cm/s. The IC50 in data set [1] (setting [5]) was 3.4 µM. In data set [3], the IC50 at 72 h was determined as 203 µM.
`CC(C)(C)OC(=O)N1CCN(c2ccc(NC(=O)c3cccc(F)c3Oc3ccc(F)cc3)cc2)CC1` [Compound 37, tert-Butyl 4-{4-[3-fluoro-2-(4-fluorophenoxy)benzamido]phenyl}piperazine-1-carb-oxylate] returned a Papp at 5 h, 200 µM in data set [2] (setting [4]) of 0.7 ×10⁻⁶ cm/s. For the same molecule, the IC50 in data set [1] (setting [5]) is 4.07 µM. Moreover, the IC50 at 72 h in data set [3] turned out to be 35.3 µM.
The like results for `CC(C)(C)OC(=O)N1CCN(c2ccc(NC(=O)c3cccc([N+](=O)[O-])c3Oc3ccc(F)cc3)cc2)CC1` [Compound 38, tert-Butyl 4-{4-[2-(4-fluorophenoxy)-3-nitrobenzamido]phenyl}piperazine-1-carb-oxylate] were, in that order, 1.53 ×10⁻⁶ cm/s, 1.43 µM and 70.8 µM.
For `CC(C)(C)OC(=O)N1CCN(c2ccc(NC(=O)c3cccc(C(F)(F)F)c3Sc3ccc(F)cc3)cc2)CC1` [Compound 39, tert-Butyl 4-(4-{2-[(4-fluorophenyl)sulfanyl]-3-(trifluoromethyl)benzamido}phenyl) piperazine-1-carboxylate], in data set [2] (setting [4]), the Pe is 4.31 10^−6 cm/s and the Papp at 5 h, 200 µM came out at 3.77 ×10⁻⁶ cm/s. Besides, the “S.I. = IC50 (Cyt.)/IC50 (PfNF54)” value in data set [1] is recorded as 212.8. Also, the IC50 in data set [1] (setting [5]) stood at 0.149 µM. For the same molecule, the IC50 at 72 h in data set [3] was determined as 31.8 µM.
In data set [2] (setting [4]), `CC(C)(C)OC(=O)N1CCN(c2ccc(NC(=O)c3ccccc3Oc3ccccc3)cc2)CC1` [Compound 40, tert-Butyl 4-[4-(2-phenoxybenzamido)phenyl]piperazin-1-carboxylate] showed a Papp at 5 h, 200 µM of 5.57 ×10⁻⁶ cm/s. Further, the “S.I. = IC50 (Cyt.)/IC50 (PfNF54)” value in data set [1] was found to be 31.78. Also, the IC50 in data set [1] (setting [5]) turned out to be 3.09 µM. Moreover, 98.3 µM corresponded to half-maximal inhibition in data set [3] (IC50 at 72 h).
`CC(C)(C)OC(=O)N1CCN(c2ccc(NC(=O)c3cccc(C(F)(F)F)c3Nc3ccccc3)cc2)CC1` [Compound 41, tert-Butyl 4-{4-[2-anilino-3-(trifluoromethyl)benzamido]phenyl}piperazin-1-carboxylate] gave a Papp at 5 h, 200 µM in data set [2] (setting [4]) of 1.32 ×10⁻⁶ cm/s. Moreover, the figures for the IC50 in data set [1] (setting [5]) and in data set [1] (setting [6]) were 0.539 to 0.634 µM and 0.634 µM, respectively. The molecule further returned an IC50 at 72 h in data set [3] of 33.8 µM.
The molecule `CC(C)(C)OC(=O)N1CCN(c2ccc(NC(=O)c3cccc(C(F)(F)F)c3Nc3ccc(F)cc3)cc2)CC1` [Compound 42] displayed a Papp at 5 h, 200 µM in data set [2] (setting [4]) of 0.2 ×10⁻⁶ cm/s. The IC50 in data set [1] (setting [5]) was 0.539 to 0.634 µM; in data set [1] (setting [6]) it was 0.539 µM. Besides, the IC50 at 72 h in data set [3] is 94.2 µM.
The molecule `CC(C)(C)C(=O)N1CCN(c2ccc(NC(=O)c3ccccc3Oc3ccc(F)cc3)cc2)CC1` [Compound 43, N-{4-[4-(2,2-Dimethylpropanoyl)piperazin-1-yl]phenyl}-2-(4-fluorophenoxy)benzamid] came in with a Papp at 5 h, 200 µM in data set [2] (setting [4]) of 0.02 ×10⁻⁶ cm/s. In addition, the IC50 in data set [1] (setting [5]) amounted to 5.62 µM. Also, in data set [3], half-maximal inhibition (IC50 at 72 h) was put at 184 µM.
In data set [2] (PAMPA standards), `NS(=O)(=O)c1cc2c(cc1Cl)NCNS2(=O)=O` [Hydrochlorothiazide, reference compound] registered a Pe of 0.9 nm/s.
